Assay results from ChEMBL document CHEMBL1201862, “PubChem BioAssay data set” (2004).
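How tested: cells in 96-well plates exposed to compound for 48 hours at five concentrations. At the GI50, growth is halved.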 Active and inactive are the calls of the source. Cut-off read from the data, not from the text of the source: active = GI50 up to about 1.1 µM and inactive = higher.

Experiments:
Assay in all cases: growth of human tumour cells (NCI), 48 h
XF498 = tested on: XF498
EKVX = tested on: EKVX
SK-MEL-2 = tested on: SK-MEL-2
RPMI-8226 = tested on: RPMI-8226
OVCAR-5 = tested on: OVCAR-5
HCT-116 = tested on: HCT-116
HOP-62 = tested on: HOP-62
CCRF-CEM = tested on: CCRF-CEM
HOP-92 = tested on: HOP-92
HL-60 = tested on: HL-60
COLO 205 = tested on: COLO 205
UACC-62 = tested on: UACC-62
NCI-H226 = tested on: NCI-H226
786-0 = tested on: 786-0
SNB-19 = tested on: SNB-19
Hs-578T = tested on: Hs-578T
BT-549 = tested on: BT-549
MDA-MB-435 = tested on: MDA-MB-435
T47D = tested on: T47D
MDA-MB-231 = tested on: MDA-MB-231

SMILES | GI50 (XF498) | GI50 (EKVX) | GI50 (SK-MEL-2) | GI50 (RPMI-8226) | GI50 (OVCAR-5) | GI50 (HCT-116) | GI50 (HOP-62) | GI50 (CCRF-CEM) | GI50 (HOP-92) | GI50 (HL-60) | GI50 (COLO 205) | GI50 (UACC-62) | GI50 (NCI-H226) | GI50 (786-0) | GI50 (SNB-19) | GI50 (Hs-578T) | GI50 (BT-549) | GI50 (MDA-MB-435) | GI50 (T47D) | GI50 (MDA-MB-231)
CN(C)C(=O)Nc1c([N+](=O)[O-])cc(C(F)(F)F)cc1[N+](=O)[O-] | 16.8 µM (inactive) | > 100 µM (inactive) | 58.7 µM (inactive) | 41.1 µM (inactive) | > 100 µM (inactive) | 24.6 µM (inactive) | > 100 µM (inactive) | 79.1 µM (inactive) | 53.5 µM (inactive) | 19.4 µM (inactive) | 25 µM (inactive) | 46.9 µM (inactive) | > 100 µM (inactive) | > 100 µM (inactive) | > 100 µM (inactive) |  |  |  |  | 
NC(=O)NC(=O)C1CCC(=O)N1S(=O)(=O)c1ccc(Cl)cc1 (centres undefined) | > 100 µM (inactive) | > 100 µM (inactive) | > 100 µM (inactive) | > 100 µM (inactive) |  | > 100 µM (inactive) | > 100 µM (inactive) | 77.4 µM (inactive) | > 100 µM (inactive) | > 100 µM (inactive) | > 100 µM (inactive) | > 100 µM (inactive) | > 100 µM (inactive) | > 100 µM (inactive) | > 100 µM (inactive) |  |  |  |  | 
CSc1nc2c(nc(N)n2C2OC(CO)C(O)C(O)C2O)c(=O)n1C (centres undefined) | > 100 µM (inactive) | > 100 µM (inactive) |  |  |  | > 100 µM (inactive) | > 100 µM (inactive) | > 100 µM (inactive) | > 100 µM (inactive) | > 100 µM (inactive) | > 100 µM (inactive) | > 100 µM (inactive) | > 100 µM (inactive) | > 100 µM (inactive) | > 100 µM (inactive) |  |  |  |  | 
COc1ccc(C2NCCc3c2[nH]c2ccccc32)cc1 (centres undefined) | 28.1 µM (inactive) | > 100 µM (inactive) |  | > 100 µM (inactive) | > 100 µM (inactive) | 51.5 µM (inactive) | 21.2 µM (inactive) | 77.6 µM (inactive) | > 100 µM (inactive) | > 100 µM (inactive) | 32.2 µM (inactive) | > 100 µM (inactive) | > 100 µM (inactive) | 83.8 µM (inactive) | > 100 µM (inactive) |  |  |  |  | 
Cc1ccc([N+](=O)[O-])cc1NC(=O)c1cccc([N+](=O)[O-])c1O | 18.2 µM (inactive) | 21.2 µM (inactive) | 7.98 µM (inactive) | 4.73 µM (inactive) |  |  | 7.96 µM (inactive) | 18.2 µM (inactive) |  | 5.01 µM (inactive) | 17.1 µM (inactive) | 3.85 µM (inactive) | 13.6 µM (inactive) | 28.9 µM (inactive) | 14.1 µM (inactive) |  |  |  |  | 
CCOCC(=O)N[C@H]1CCc2cc(OC)c(OC)c(OC)c2-c2ccc(OC)c(=O)cc21 | 0.0138 µM (active) | > 15.8 µM (inactive) | 0.0174 µM (active) | 0.0778 µM (active) | 0.741 µM (active) | 0.014 µM (active) | 0.0232 µM (active) | 0.0444 µM (active) | 0.0303 µM (active) | < 0.01 µM (active) | 0.0137 µM (active) | 0.0153 µM (active) | 0.0762 µM (active) | 0.0199 µM (active) | 0.164 µM (active) | 0.0203 µM (active) | < 0.0321 µM (active) | 0.0123 µM (active) | > 100 µM (inactive) | < 0.0145 µM (active)
COC(=O)c1ccccc1NC(=O)C(=O)CC(=O)c1ccccc1NC1=CC(=O)C(=O)c2ccccc21 | 15.6 µM (inactive) | 44.8 µM (inactive) | 12.5 µM (inactive) | 2.64 µM (inactive) | 29.2 µM (inactive) | 4.67 µM (inactive) | 22.7 µM (inactive) | 3.17 µM (inactive) | 5.16 µM (inactive) | 1.55 µM (inactive) | 31.9 µM (inactive) | 8.87 µM (inactive) | 25.9 µM (inactive) | 5.65 µM (inactive) | 20.2 µM (inactive) | 7.45 µM (inactive) | 15.2 µM (inactive) | 4.15 µM (inactive) | 18.7 µM (inactive) | 3.4 µM (inactive)
CC(=O)O[C@]12CCCCCCC1C1(O)C(O)CCC[C@H]12 (some centres undefined) | > 100 µM (inactive) | > 100 µM (inactive) | > 100 µM (inactive) | > 100 µM (inactive) |  | > 100 µM (inactive) | > 100 µM (inactive) | > 100 µM (inactive) |  | > 10 µM (inactive) | > 100 µM (inactive) | > 100 µM (inactive) | > 100 µM (inactive) | > 100 µM (inactive) | > 100 µM (inactive) |  |  |  |  | 
CC(=O)NC(CCCN)C(=O)NCc1ccccc1 (centres undefined) | > 100 µM (inactive) | > 100 µM (inactive) | > 100 µM (inactive) | > 100 µM (inactive) | > 100 µM (inactive) | > 100 µM (inactive) | > 100 µM (inactive) | > 100 µM (inactive) | > 100 µM (inactive) |  | > 100 µM (inactive) | > 100 µM (inactive) | > 100 µM (inactive) | > 100 µM (inactive) | > 100 µM (inactive) |  |  |  |  | 
Cn1c(=O)c(NC(=O)C(Cl)(Cl)Cl)nc2ccccc21 | > 100 µM (inactive) | 54.5 µM (inactive) | > 100 µM (inactive) | > 100 µM (inactive) |  | > 100 µM (inactive) | > 100 µM (inactive) | > 100 µM (inactive) |  | > 100 µM (inactive) | > 100 µM (inactive) | > 100 µM (inactive) | 81.8 µM (inactive) | > 100 µM (inactive) | > 100 µM (inactive) |  |  |  |  | 
CC1(CO)C(=O)OC12CCCCC2 (centres undefined) | > 100 µM (inactive) | > 100 µM (inactive) | > 100 µM (inactive) | > 100 µM (inactive) |  | > 100 µM (inactive) | > 100 µM (inactive) | > 100 µM (inactive) | > 100 µM (inactive) | > 100 µM (inactive) | > 100 µM (inactive) | > 100 µM (inactive) | > 100 µM (inactive) | > 100 µM (inactive) | > 100 µM (inactive) |  |  |  |  | 
C=CCN1C(=O)CS/C1=N\NC(=O)c1c(C)nc2sccn12 | > 100 µM (inactive) | > 100 µM (inactive) | > 100 µM (inactive) | > 100 µM (inactive) | > 100 µM (inactive) | > 100 µM (inactive) | > 100 µM (inactive) | > 100 µM (inactive) | > 100 µM (inactive) | > 100 µM (inactive) | > 100 µM (inactive) | > 100 µM (inactive) | > 100 µM (inactive) | > 100 µM (inactive) | > 100 µM (inactive) |  |  |  |  | 
CCNC(=O)/C=C/CCC#Cc1ccc(-c2ccc(-c3cccs3)s2)s1 | 2.71 µM (inactive) | > 100 µM (inactive) | > 100 µM (inactive) | > 100 µM (inactive) | > 100 µM (inactive) | > 100 µM (inactive) | > 100 µM (inactive) | > 100 µM (inactive) | > 100 µM (inactive) | > 100 µM (inactive) | 1.63 µM (inactive) | 2.9 µM (inactive) | > 100 µM (inactive) | > 100 µM (inactive) | > 100 µM (inactive) |  |  |  |  | 
COc1ccc(C(=O)Nc2ccn(CCOC(=O)c3ccc(OC)cc3)c(=O)n2)cc1 | > 100 µM (inactive) | > 100 µM (inactive) | 47.3 µM (inactive) | > 100 µM (inactive) | > 100 µM (inactive) | > 100 µM (inactive) | 51.1 µM (inactive) | > 100 µM (inactive) | 63 µM (inactive) | > 100 µM (inactive) | > 100 µM (inactive) | > 100 µM (inactive) | > 100 µM (inactive) | > 100 µM (inactive) |  |  |  |  |  | 
CC1CC2CCCC(=O)C2=C(O)O1 (centres undefined) |  | 86.7 µM (inactive) | > 100 µM (inactive) | > 100 µM (inactive) | > 100 µM (inactive) | > 100 µM (inactive) | > 100 µM (inactive) | > 100 µM (inactive) | > 100 µM (inactive) | > 100 µM (inactive) | > 100 µM (inactive) | > 100 µM (inactive) | > 100 µM (inactive) | > 100 µM (inactive) | 31.6 µM (inactive) | > 100 µM (inactive) | 81.5 µM (inactive) | > 100 µM (inactive) | > 100 µM (inactive) | > 100 µM (inactive)
